Assays:
BRAF V600E = BRAF V600E (Homo sapiens (Human), UniProt P15056, V600E); assay: Inhibitory activity against kinase BRAF V600E, Z'-LYTE method (Invitrogen); format: biochemical; conditions: for inhibition at 1 µM: 1 μM compound, read-out: Inhibition (% inhibition at 1 μM) against BRAF V600E
Method in brief: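 FRET-based Z′-LYTE peptide-phosphorylation assay in 50 mM HEPES pH 7.5, 0.01% BRIJ-35, 10 mM MgCl2, 1 mM EGTA; kinase reaction 60 min at room temperature, then 60 min development before fluorescence read. IC50 from concentration vs % inhibition; single-point % inhibition tested at 1 μM.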

A549 cells = assay: Inhibition of cancer cell growth, MTT or MTS assay, A549; format: cell-based; conditions: Homo sapiens, 72 h incubation
Method in brief: (§1)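 Cells in RPMI 1640 with 10% FBS were seeded at ~2000 (A375) or 4000 (A549, Colo205) per well, grown 24 h, then exposed to compound 72 h at 1% final DMSO. Read-out by MTT (570 nm) or MTS (490 nm). IC50 from concentration vs percent inhibition, triplicates.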

KDR (VEGFR2) = KDR (VEGFR2) (Homo sapiens (Human), UniProt P35968); assay: Inhibitory activity against kinase KDR, Z'-LYTE method (Invitrogen); format: biochemical; conditions: for inhibition at 1 µM: 1 μM compound, read-out: Inhibition (% inhibition at 1 μM) against KDR
Method in brief: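 Human KDR (VEGFR2) kinase inhibition was measured with Invitrogen's Z′-LYTE® method. A 2× mixture of KDR and Tyr 01 peptide is made in 50 mM HEPES pH 7.5, 0.01% BRIJ-35, 10 mM MgCl2, 1 mM EGTA. Each 10 μL reaction holds 0.5-11.7 ng enzyme and 2 μM Tyr 01. It incubates for 1 hour, then 5 μL of Development Reagent B diluted 1:256 is added.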

A375 cells = assay: Inhibition of cancer cell growth, MTT or MTS assay, A375; format: cell-based; conditions: Homo sapiens, A-375; 72 h incubation
Method in brief: as §1

Colo205 cells = assay: Inhibition of cancer cell growth, MTT or MTS assay, Colo205; format: cell-based; conditions: Homo sapiens, COLO 205; 72 h incubation
Method: Inhibition of cell growth by compounds was measured using MTT or MTS assay. Tumor cell lines were purchased from ATCC (American Type Culture Collection, Manassas, Va.). All cell lines were maintained in RPMI 1640 (Hyclone) supplemented with 10% fetal bovine serum (FBS, Hyclone), glutamine (2 mM, Hyclone), and antibiotics (penicillin 100 U/mL and streptomycin 50 μg/mL) at 37° C. in a humidified atmosphere of 5% CO2 in air. Taxol (as a positive control, Sigma) and compounds were dissolved in DMSO (Sigma), and the final concentration of DMSO in the medium was 1%. Tumor cells were plated in 96-well plates at densities of about 2000 (A375) or 4000 (A549 and Colo205) cells/well of a 96-well plate and allowed to adhere/grow for 24 h. They were then treated with various concentrations of drug and incubated for 72 h. For MTT method, medium was then removed by inverting and tapping the plates. 100 μL of MTT (0.5 mg/ml) was added to each well followed by an incubated at 37° C. for 4 h. MTT was then removed and 200 μL of DMSO was added to each well, and the ODs at 570 nm were measured after a 5 second shaking cycle in a 96-well spectrophotometer. For MTS method, 20 μL MTS (CellTiter 96 Aqueous One Solution, Promega) was added to each well followed by an incubated at 37° C. for 2-4 h, solutions were then directly put in a 96-well spectrophotometer, and the ODs at 490 nm were measured.
All concentrations of compounds were tested in triplicate and controls were averaged over 4 wells. IC50 was calculated by plotting the concentration of compound vs the percentage of inhibition in treated wells using GraphPad Prism 5. […] The scale utilized in Tables […] is as follows: +++ less than 1000 nM; ++ between 1000 nM and 5000 nM; and + greater than 5000 nM. The scale utilized in Table 8 is as follows: +++ less than 2000 nM; ++ between 2000 nM and 5000 nM; and + greater than 5000 nM.

BRAF = BRAF (Homo sapiens (Human), UniProt P15056); assay: Inhibitory activity against kinase BRAF, Z'-LYTE method (Invitrogen); format: biochemical; conditions: 1 μM compound
Method in brief: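 Z′-LYTE FRET kinase assay in 50 mM HEPES pH 7.5, 10 mM MgCl2, 1 mM EGTA, 0.01% Brij-35, with a 60 min RT kinase reaction, then 60 min development. IC50 was taken from % inhibition versus concentration. Values may be given as % inhibition at 1 μM.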

Colo205 tumor xenograft = assay: Inhibition of tumor growth in Colo205 tumor xenograft model; format: in vivo, BALB/c female nude mice; conditions: 30 mg/kg, qd × 14, i.p.; for Tumor Volume Post-treatment: after treatment; for Tumor Volume Pre-treatment: before treatment
Method: Cells were implanted in BALB/c female nude mice and grown as tumor xenografts. When tumors achieved 120-200 mm^3, mice were assigned into treatment and control groups using randomized block design based upon their tumor volumes. Each group contained 6 tumor-bearing mice. Tumors were measured twice weekly in two dimensions using a caliper, and the tumor volume was calculated from two-dimensional measurements using the equation V=0.5×a×b^2 where a and b are the long and short diameters of the tumor, respectively. Relative tumor volume (RTV) was defined as TVt/TVi, the ratio of the volume on a given day (TVt) and the volume at the start of treatment (TVi). Relative tumor growth rate (T/C) was defined as RTVT/RTVC, the ratio of relative tumor volume of treatment group (RTVT) and relative tumor volume of control group (RTVC) on a given day. Inhibition of tumor growth in a Colo205 tumor xenograft model is shown below in Table 10 for a compound of Table 1.

KDR (VEGFR2), sequence (P35968 20-1356): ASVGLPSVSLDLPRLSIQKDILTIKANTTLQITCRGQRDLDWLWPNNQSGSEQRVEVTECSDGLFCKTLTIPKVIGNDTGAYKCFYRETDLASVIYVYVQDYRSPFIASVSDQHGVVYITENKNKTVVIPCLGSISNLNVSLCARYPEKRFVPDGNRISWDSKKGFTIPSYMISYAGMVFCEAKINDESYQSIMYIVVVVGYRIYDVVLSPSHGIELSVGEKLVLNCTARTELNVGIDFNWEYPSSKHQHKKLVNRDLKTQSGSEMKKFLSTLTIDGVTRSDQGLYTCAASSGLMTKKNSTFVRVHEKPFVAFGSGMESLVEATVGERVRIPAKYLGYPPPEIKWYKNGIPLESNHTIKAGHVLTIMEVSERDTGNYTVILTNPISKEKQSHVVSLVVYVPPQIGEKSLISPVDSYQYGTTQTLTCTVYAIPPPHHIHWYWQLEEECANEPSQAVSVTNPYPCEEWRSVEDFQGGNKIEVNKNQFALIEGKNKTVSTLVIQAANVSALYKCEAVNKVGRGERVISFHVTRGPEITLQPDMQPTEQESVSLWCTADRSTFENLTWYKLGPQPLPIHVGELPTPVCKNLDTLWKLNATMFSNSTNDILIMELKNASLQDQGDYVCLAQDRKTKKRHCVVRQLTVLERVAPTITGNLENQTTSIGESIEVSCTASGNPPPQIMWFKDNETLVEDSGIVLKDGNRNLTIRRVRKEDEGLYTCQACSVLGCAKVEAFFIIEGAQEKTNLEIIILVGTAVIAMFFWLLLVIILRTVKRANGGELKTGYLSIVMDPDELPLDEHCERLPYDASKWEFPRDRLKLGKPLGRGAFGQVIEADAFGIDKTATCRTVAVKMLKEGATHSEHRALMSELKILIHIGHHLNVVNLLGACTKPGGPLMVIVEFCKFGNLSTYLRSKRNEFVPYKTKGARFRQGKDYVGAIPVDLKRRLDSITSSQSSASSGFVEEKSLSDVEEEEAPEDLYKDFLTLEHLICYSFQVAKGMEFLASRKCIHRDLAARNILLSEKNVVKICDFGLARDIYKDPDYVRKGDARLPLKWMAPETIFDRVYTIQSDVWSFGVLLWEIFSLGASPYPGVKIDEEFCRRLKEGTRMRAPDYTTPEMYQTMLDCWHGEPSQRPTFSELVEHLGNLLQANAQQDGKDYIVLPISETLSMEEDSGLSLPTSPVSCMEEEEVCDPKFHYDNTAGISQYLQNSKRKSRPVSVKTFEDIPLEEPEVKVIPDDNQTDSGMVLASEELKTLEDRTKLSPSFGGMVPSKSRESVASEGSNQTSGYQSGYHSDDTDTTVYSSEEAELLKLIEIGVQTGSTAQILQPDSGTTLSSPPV
BRAF, sequence (P15056 whole entry): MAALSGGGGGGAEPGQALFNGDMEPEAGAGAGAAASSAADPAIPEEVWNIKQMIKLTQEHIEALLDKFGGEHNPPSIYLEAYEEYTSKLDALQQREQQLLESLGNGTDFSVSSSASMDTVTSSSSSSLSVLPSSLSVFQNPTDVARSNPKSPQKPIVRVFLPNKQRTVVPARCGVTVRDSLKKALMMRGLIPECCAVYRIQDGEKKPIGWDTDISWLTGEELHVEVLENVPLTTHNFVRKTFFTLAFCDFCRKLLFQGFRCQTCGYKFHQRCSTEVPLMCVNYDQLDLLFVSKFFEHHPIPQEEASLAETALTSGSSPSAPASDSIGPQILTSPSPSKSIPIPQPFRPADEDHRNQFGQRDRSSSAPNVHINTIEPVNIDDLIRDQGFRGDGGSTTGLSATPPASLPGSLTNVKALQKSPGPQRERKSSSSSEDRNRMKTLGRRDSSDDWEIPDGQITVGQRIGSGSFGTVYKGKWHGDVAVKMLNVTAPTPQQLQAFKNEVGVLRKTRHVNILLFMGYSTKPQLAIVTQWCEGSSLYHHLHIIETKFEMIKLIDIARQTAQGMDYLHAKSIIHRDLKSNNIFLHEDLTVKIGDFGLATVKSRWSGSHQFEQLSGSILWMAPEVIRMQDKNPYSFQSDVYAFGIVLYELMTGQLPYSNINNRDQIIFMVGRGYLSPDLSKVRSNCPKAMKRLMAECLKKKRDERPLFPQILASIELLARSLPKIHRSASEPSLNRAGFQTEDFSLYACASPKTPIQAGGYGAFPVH
BRAF V600E, sequence (P15056 whole entry V600E): as the sequence (P15056 whole entry) above, with V600E counted along it

IC50 (BRAF V600E)	inhibition at 1 µM (BRAF V600E)	IC50 (A549 cells)	IC50 (KDR (VEGFR2))	inhibition at 1 µM (KDR (VEGFR2))	IC50 (A375 cells)	IC50 (Colo205 cells)	inhibition at 1 µM (BRAF)	Structure (SMILES)	T/C (relative tumor growth rate) (Colo205 tumor xenograft)	Tumor Volume Post-treatment (Colo205 tumor xenograft)	Tumor Volume Pre-treatment (Colo205 tumor xenograft)
> 0.1 µM	> 89%	< 2 µM	< 0.1 µM	> 89%	1 to 5 µM	1 to 5 µM	–	O=C(Nc1cccc(Oc2ccc3nccnc3c2)c1)Nc1ccc(Cl)c(C(F)(F)F)c1 [Compound C001, 1-(4-chloro-3-(trifluoromethyl)phenyl)-3-(3-(quinoxalin-6-yloxy)phenyl)urea]	–	–	–
–	> 89%	–	–	70 to 89%	–	> 5 µM	< 70%	O=C(Nc1ccc(F)cc1)Nc1ccc(Oc2ccc3ncc(N4CCOCC4)nc3c2)cc1 [Compound C082, 1-(4-fluorophenyl)-3-(4-((3-morpholinoquinoxalin-6-yl)oxy)phenyl)urea]	–	–	–
–	> 89%	< 2 µM	–	> 89%	1 to 5 µM	1 to 5 µM	70 to 89%	O=C(Nc1ccc(Oc2ccc3ncc(N4CCNCC4)nc3c2)cc1)Nc1ccc(F)c(C(F)(F)F)c1 [Compound C087, 1-(4-fluoro-3-(trifluoromethyl)phenyl)-3-(4-((3-(piperazin-1-yl)quinoxalin-6-yl)oxy)phenyl)urea]	81%	796.35 mm^3	237.13 mm^3
–	> 89%	< 2 µM	–	> 89%	< 1 µM	< 1 µM	< 70%	O=C(Nc1ccc(Oc2ccc3ncc(N4CCNCC4)nc3c2)cc1)Nc1ccc(Cl)c(C(F)(F)F)c1 [Compound C089, 1-(4-chloro-3-(trifluoromethyl)phenyl)-3-(4-((3-(piperazin-1-yl)quinoxalin-6-yl)oxy)phenyl)urea]	79%	768.94 mm^3	233.30 mm^3

Reference: patent US10590106B2, “Certain chemical entities, compositions, and methods” (NeuPharma, Inc., priority 2012, dated 2020)
